Reference: PubChem BioAssay (NCI)
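Exposure lasted 48 hours, with cells grown in 96-well plates and compounds tested at five concentrations. TGI: concentration producing complete growth inhibition.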

Columns and labels:
Assay in all cases: inhibition of tumour cell growth, NCI panel, 48 h
[1] = tested on: 786-0 renal
[2] = tested on: A498 renal
[3] = tested on: A549 NSCLC
[4] = tested on: ACHN renal
[5] = tested on: BT-549 breast
[6] = tested on: CAKI-1 renal
[7] = tested on: CCRF-CEM leukemia
[8] = tested on: COLO 205 colon
[9] = tested on: DU-145 prostate
[10] = tested on: EKVX NSCLC
[11] = tested on: HCT-15 colon
[12] = tested on: HL-60(TB) leukemia
[13] = tested on: HOP-62 NSCLC
[14] = tested on: HOP-92 NSCLC
[15] = tested on: HS 578T breast
[16] = tested on: HT29 colon
[17] = tested on: IGROV1 ovarian
[18] = tested on: K-562 leukemia
[19] = tested on: KM12 colon
[20] = tested on: LOX IMVI melanoma
[21] = tested on: M14 melanoma
[22] = tested on: MALME-3M melanoma
[23] = tested on: MCF7 breast
[24] = tested on: MDA-MB-231 breast
[25] = tested on: MDA-MB-435
[26] = tested on: MDA-N
[27] = tested on: MOLT-4 leukemia
[28] = tested on: NCI-H226 lung
[29] = tested on: NCI-H23 lung
[30] = tested on: NCI-H460 lung
[31] = tested on: NCI-H522 lung
[32] = tested on: NCI/ADR-RES ovarian
[33] = tested on: OVCAR-3 ovarian
[34] = tested on: OVCAR-4 ovarian
[35] = tested on: OVCAR-5 ovarian
[36] = tested on: OVCAR-8 ovarian
[37] = tested on: PC-3 prostate
[38] = tested on: RPMI-8226 leukemia
[39] = tested on: RXF 393 renal
[40] = tested on: SF-268 CNS
[41] = tested on: SF-295 CNS
[42] = tested on: SF-539 CNS
[43] = tested on: SK-MEL-2 melanoma
[44] = tested on: SK-MEL-28 melanoma
[45] = tested on: SK-MEL-5 melanoma
[46] = tested on: SK-OV-3 ovarian
[47] = tested on: SN12C renal
[48] = tested on: SNB-19 CNS
[49] = tested on: SNB-75 CNS
[50] = tested on: SR leukemia
[51] = tested on: SW-620 colon
[52] = tested on: T-47D breast
[53] = tested on: TK-10 renal
[54] = tested on: U251 CNS
[55] = tested on: UACC-257 melanoma
[56] = tested on: UACC-62 melanoma
[57] = tested on: UO-31 renal

Question: `CC(C)(Br)C(=O)/C=C/c1ccccc1` was tested. Which TGI [1] did it give?
Answer: The TGI was 2.22 µM.

Question: And the TGI [2]?
Answer: The TGI was 36.9 µM.

Question: What about the TGI [3] of the same molecule?
Answer: Its TGI is 56.7 µM.

Question: What about the TGI [4] of the same molecule?
Answer: Its TGI is 6.74 µM.

Question: And the TGI [5]?
Answer: The TGI was 3.76 µM.

Question: What about the TGI [6] of the same molecule?
Answer: Its TGI is 17.3 µM.

Question: And the TGI [7]?
Answer: The TGI was 1.63 µM.

Question: What about the TGI [8] of the same molecule?
Answer: The TGI was 22 µM.

Question: And the TGI [9]?
Answer: Its TGI is 22.9 µM.

Question: And the TGI [10]?
Answer: The TGI was 23 µM.

Question: What about the TGI [11] of the same molecule?
Answer: Its TGI is 4.63 µM.

Question: What about the TGI [12] of the same molecule?
Answer: Its TGI is 29 µM.

Question: What about the TGI [13] of the same molecule?
Answer: Its TGI is 15.6 µM.

Question: What about the TGI [14] of the same molecule?
Answer: Its TGI is 18 µM.

Question: And the TGI [15]?
Answer: Its TGI is greater than 60.3 µM.

Question: What about the TGI [16] of the same molecule?
Answer: The TGI was 18.3 µM.

Question: And the TGI [17]?
Answer: Its TGI is 1.79 µM.

Question: What about the TGI [18] of the same molecule?
Answer: The TGI was greater than 100 µM.

Question: And the TGI [19]?
Answer: The TGI was 43.6 µM.

Question: What about the TGI [20] of the same molecule?
Answer: Its TGI is 9.75 µM.

Question: And the TGI [21]?
Answer: Its TGI is 4.88 µM.

Question: What about the TGI [22] of the same molecule?
Answer: Its TGI is 10.2 µM.

Question: What about the TGI [23] of the same molecule?
Answer: Its TGI is 15.3 µM.

Question: And the TGI [24]?
Answer: The TGI was greater than 69.8 µM.

Question: What about the TGI [25] of the same molecule?
Answer: Its TGI is 22.2 µM.

Question: What about the TGI [26] of the same molecule?
Answer: Its TGI is 21.4 µM.

Question: And the TGI [27]?
Answer: The TGI was greater than 43.7 µM.

Question: What about the TGI [28] of the same molecule?
Answer: The TGI was 24 µM.

Question: And the TGI [29]?
Answer: Its TGI is 5 µM.

Question: And the TGI [30]?
Answer: The TGI was 63.4 µM.

Question: And the TGI [31]?
Answer: Its TGI is 0.381 µM.

Question: And the TGI [32]?
Answer: The TGI was greater than 75.5 µM.

Question: What about the TGI [33] of the same molecule?
Answer: The TGI was 25.4 µM.

Question: And the TGI [34]?
Answer: The TGI was 5.58 µM.

Question: And the TGI [35]?
Answer: Its TGI is 19.7 µM.

Question: What about the TGI [36] of the same molecule?
Answer: The TGI was 5.2 µM.

Question: And the TGI [37]?
Answer: The TGI was 33.7 µM.

Question: What about the TGI [38] of the same molecule?
Answer: The TGI was 3.14 µM.

Question: What about the TGI [39] of the same molecule?
Answer: Its TGI is 3.12 µM.

Question: And the TGI [40]?
Answer: Its TGI is 51.2 µM.

Question: What about the TGI [41] of the same molecule?
Answer: Its TGI is greater than 53.6 µM.

Question: What about the TGI [42] of the same molecule?
Answer: Its TGI is 25.6 µM.

Question: And the TGI [43]?
Answer: Its TGI is 3.96 µM.

Question: And the TGI [44]?
Answer: Its TGI is 28.9 µM.

Question: And the TGI [45]?
Answer: Its TGI is 27.5 µM.

Question: And the TGI [46]?
Answer: Its TGI is greater than 83.1 µM.

Question: And the TGI [47]?
Answer: The TGI was 22.5 µM.

Question: And the TGI [48]?
Answer: Its TGI is 78.3 µM.

Question: What about the TGI [49] of the same molecule?
Answer: The TGI was 32.6 µM.

Question: And the TGI [50]?
Answer: The TGI was greater than 25.6 µM.

Question: And the TGI [51]?
Answer: Its TGI is 6.79 µM.

Question: What about the TGI [52] of the same molecule?
Answer: The TGI was greater than 52 µM.

Question: What about the TGI [53] of the same molecule?
Answer: Its TGI is 37.9 µM.

Question: And the TGI [54]?
Answer: The TGI was 20.5 µM.

Question: And the TGI [55]?
Answer: Its TGI is 28.8 µM.

Question: And the TGI [56]?
Answer: The TGI was 19 µM.

Question: What about the TGI [57] of the same molecule?
Answer: Its TGI is 3.68 µM.
